We go through 3 compounds from paper PMC8841438 (Clinical and Translational Science, 2021).

“Also recorded” adds a separate entry of the source. Where two headings read alike, the source gives them in different places.

The conditions of data set [1]: filgotinib: unchanged; cited from earlier work.
The subject of data set [2] is organic anion transporter 3. As to conditions: in vitro; at clinically relevant concentrations; cited from earlier work.
The next data set concerns bile salt export pump. As to conditions: in vitro; at clinically relevant concentrations; cited from earlier work.
Data set [3] deals with T1, organic cation transporter 2 (OCT2) (Homo sapiens, UniProt O15244).
T1 sequence (O15244 1-555): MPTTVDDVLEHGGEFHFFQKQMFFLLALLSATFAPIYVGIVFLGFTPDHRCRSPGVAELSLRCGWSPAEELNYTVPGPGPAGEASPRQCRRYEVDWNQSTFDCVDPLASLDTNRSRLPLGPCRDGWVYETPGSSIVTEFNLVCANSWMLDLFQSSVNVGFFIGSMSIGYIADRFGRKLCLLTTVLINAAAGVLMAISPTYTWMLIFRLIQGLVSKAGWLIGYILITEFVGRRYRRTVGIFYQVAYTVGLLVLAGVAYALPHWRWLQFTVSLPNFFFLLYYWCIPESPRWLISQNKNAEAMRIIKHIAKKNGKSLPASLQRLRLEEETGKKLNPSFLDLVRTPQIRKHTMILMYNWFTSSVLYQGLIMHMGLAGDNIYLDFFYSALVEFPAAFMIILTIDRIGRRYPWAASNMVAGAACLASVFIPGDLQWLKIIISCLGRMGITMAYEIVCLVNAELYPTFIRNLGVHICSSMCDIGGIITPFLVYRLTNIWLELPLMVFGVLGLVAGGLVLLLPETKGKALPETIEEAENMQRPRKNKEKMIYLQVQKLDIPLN
Briefly: In vitro transporter inhibition: OCT2. The settings on record: data on file at Gilead Sciences, Inc. Format: in vitro ADME.

In data set [4] the test system is breast cancer resistance protein. The settings on record: in vitro; at clinically relevant concentrations; cited from earlier work.
A further data set relates to P‐glycoprotein. The settings on record: in vitro; cited from earlier work.
A further data set deals with JAK1. The settings on record: cited from earlier work.
Data set [5] is classed as in vivo, human. As to conditions: study 2.
The next data set deals with P‐gp. The settings on record: in vitro; at clinically relevant concentrations; cited from earlier work.
For data set [6] the following is noted: cited from earlier work.
Data set [7] concerns organic anion transporter 1. The settings on record: in vitro; at clinically relevant concentrations; cited from earlier work.
The format of data set [8] is in vivo, human. As to conditions: study 1.
In data set [9] the test system is organic cation transporter 1. The settings on record: in vitro; at clinically relevant concentrations; cited from earlier work.
For another data set, the target named is MATE2K (Homo sapiens, UniProt Q86VL8). Briefly: In vitro transporter inhibition: MATE2K. Format: in vitro ADME. As to conditions: data on file at Gilead Sciences, Inc.
Sequence of MATE2K (Q86VL8 1-566 isoform Q86VL8-3): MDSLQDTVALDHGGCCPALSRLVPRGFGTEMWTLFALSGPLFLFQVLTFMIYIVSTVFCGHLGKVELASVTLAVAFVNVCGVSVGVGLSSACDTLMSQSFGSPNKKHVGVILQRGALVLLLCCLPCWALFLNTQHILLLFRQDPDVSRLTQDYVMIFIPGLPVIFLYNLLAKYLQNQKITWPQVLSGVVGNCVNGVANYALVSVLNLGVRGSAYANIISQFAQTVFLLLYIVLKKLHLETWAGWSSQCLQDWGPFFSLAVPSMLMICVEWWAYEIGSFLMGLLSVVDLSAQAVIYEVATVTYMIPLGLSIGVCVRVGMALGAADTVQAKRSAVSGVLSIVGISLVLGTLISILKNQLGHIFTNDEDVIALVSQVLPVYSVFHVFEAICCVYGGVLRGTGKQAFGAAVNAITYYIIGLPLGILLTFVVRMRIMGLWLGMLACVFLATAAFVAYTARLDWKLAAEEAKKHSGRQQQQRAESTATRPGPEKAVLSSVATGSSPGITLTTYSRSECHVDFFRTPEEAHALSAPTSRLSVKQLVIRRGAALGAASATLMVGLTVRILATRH
Data set [10] concerns organic anion transporter 4. The settings on record: in vitro; at clinically relevant concentrations; cited from earlier work.
The conditions of data set [11]: available data; cited from earlier work.
The next data set in a line: Safety assessments. It counts as in vivo, human. As to conditions: for subjects with AEs: all grade 1.
A short description of data set [12]: Study 3: metformin pharmacokinetics alone or with filgotinib in healthy subjects. As to conditions: human, plasma, oral, 850 mg.
The subject of another data set is CES1. The settings on record: human hepatocytes; cited from earlier work.
The test system of a further data set is CES2. As to conditions: human hepatocytes; cited from earlier work.
[13] abbreviates: patients with rheumatoid arthritis.
[14] abbreviates: filgotinib 200 mg after multiple doses of rifampin 600 mg vs alone.
[15] abbreviates: filgotinib + rifampin vs filgotinib alone.
[16] abbreviates: single filgotinib 200 mg alone, fasting, plasma, mean (%CV), N = 14.
[17] abbreviates: single filgotinib 200 mg alone, median (Q1, Q3), N = 14.
The mark [18] stands for this setting: filgotinib + itraconazole vs filgotinib alone.
The mark [19] stands for this setting: single filgotinib 100 mg alone, fasting, median (Q1, Q3), N = 13.
The mark [20] stands for this setting: single filgotinib 100 mg alone, fasting, plasma, mean (%CV), N = 13.

With `Nc1nc2cccc(-c3ccc(CN4CCS(=O)(=O)CC4)cc3)n2n1` [GS‐829845], in data set [1], the “orally administered dose recovered in feces as the named species” value was ~ 9% and the “orally administered dose recovered in urine as the named species” value was ~ 54%. The “inhibition of organic anion transporter 3” value in [2] is “not inhibitors”. Moreover, in the data set on bile salt export pump, the “inhibition of bile salt export pump” value was “not inhibitors”. Further, the “inhibition of OCT2 (in words)” value in data set [3] (in vitro data) is “may inhibit”. In addition, the “ratio of maximum unbound plasma concentration over in vitro IC50 against OCT2” value in [3] (setting [13]) turned out to be 0.5. For the same compound, in [4], the “inhibition of breast cancer resistance protein” value was “not inhibitors”. Besides, the “substrate of P‐glycoprotein” value with P‐glycoprotein was “substrates”. In the data set on JAK1, the “JAK1 potency relative to filgotinib” value is listed as ~ 1/10. In [5] (setting [14]), the “reduction in AUCinf by rifampin” value amounted to 38% and the “reduction in C max by rifampin” value was 19%. For the same compound, in data set [5] (setting [15]), the “AUCinf %GLSM ratio (90% CI)” value is reported as 61.9 (57.9, 66.1) %; the “AUClast %GLSM ratio (90% CI)” value was 62.3 (58.4, 66.4) %; the “C max %GLSM ratio (90% CI)” value was 81.0 (76.8, 85.4) %. Further, the “effect of rifampin on T max and t 1/2 (in words)” value in data set [5] (filgotinib: T max and t 1/2, GS‐829845: Tmax) is listed as “similar”. In [5] (setting [16]), the AUCinf is 77,400 (25.3) ng*h/ml, the AUClast is listed as 76,700 (24.8) ng*h/ml and the C max is given as 2900 (15.1) ng/ml. In addition, in data set [5] (setting [17]), the Tmax is 4.00 (3.00, 4.00) h and the t1/2 is reported as 15.9 (14.8, 18.9) h. Further, the “inhibition of P‐gp” value in the data set with P‐gp is listed as “not inhibitors”. In data set [6], the “accumulation following multiple doses” value was “approximately twofold accumulation” and the “time to steady‐state concentrations” value was around 4 days. Moreover, the “inhibition of organic anion transporter 1” value in [7] is “not inhibitors”. In data set [8] (setting [18]), the “AUCinf %GLSM ratio (90% CI)” value is 107 (104,110) % and the “AUClast %GLSM ratio (90% CI)” value is given as 106 (103,109) %. For the same compound, the “effect of itraconazole on pharmacokinetic parameters (in words)” value in data set [8] (filgotinib: Tmax, t1/2, GS‐829845: C max, AUCinf, T max, t 1/2) is given as “no effect; also recorded: similar; also recorded: did not affect”. Also, in data set [8] (setting [19]), the T max was 4.00 (4.00, 4.00) h and the “t1/2” value is 17.0 (14.0,19.5) h. Besides, in data set [8] (setting [20]), the AUCinf is 31,200 (18.4) ng*h/ml, the AUClast is listed as 30,800 (18.0) ng*h/ml and the C max is 1160 (24.8) ng/ml. For the same compound, in data set [9], the “inhibition of organic cation transporter 1” value is “not inhibitors”. The “inhibition of MATE2K (in words)” value on MATE2K (in vitro data) is given as “may inhibit”. For the same compound, the “ratio of maximum unbound plasma concentration over in vitro IC50 against MATE2K” value on MATE2K (setting [13]) was found to be 0.69. Besides, the “inhibition of organic anion transporter 4” value in [10] is “not inhibitors”.

Turning to `CN(C)C(=N)N=C(N)N` [Metformin, metformin], the “maximal increase of metformin exposure via OCT2, MATE1, and MATE2K inhibition” value in [11] is ~ 2.6 fold. Also, in “Safety assessments” (study 3, by treatment period), the “subjects with AEs” value was 25%. Further, in “Safety assessments” (study 3, one subject, by treatment phase), the “AE considered related to study drug (kind of AE)” value is reported as “nausea + vomiting”. In addition, in data set [12], the AUC(0-inf) (in general, total exposure, with the tail of the curve extrapolated) is 8720 ng·h/mL and the area under the curve AUC(0-t) (as a rule, exposure summed from dosing to a finite time, without extrapolation to infinity) came to 8640 ng·h/mL.

For the compound `CO[C@H]1/C=C/O[C@@]2(C)Oc3c(C)c(O)c4c(O)c(c(/C=N/N5CCN(C)CC5)c(O)c4c3C2=O)NC(=O)/C(C)=C\C=C\[C@H](C)[C@H](O)[C@@H](C)[C@@H](O)[C@@H](C)[C@H](OC(C)=O)[C@@H]1C` [rifampin, reference compound], the “induction of CES1” value with CES1 is recorded as “moderate induction”. In “Safety assessments” (study 2), the “subjects with AEs considered to be related to study drug (nausea)” value was determined as 7.1% and the “subjects with grade 3 laboratory abnormality (occult blood in urine)” value turned out to be 14%. Besides, the “subjects with AEs” value in the data set “Safety assessments” (study 2, by treatment period) worked out at 14%. In addition, in “Safety assessments” (study 2, by treatment period, majority grade 1 or 2), the “subjects with at least one graded laboratory abnormality” value came out at 93%. Moreover, the “induction of CES2” value with CES2 is recorded as “moderate induction”.
